The experiment has as its target recombinant human Nav1.7 (Homo sapiens (Human), UniProt Q15858). Put plainly: FRET-based membrane potential assay, recombinant human sodium channel Nav1.7. It counts as cell-based. The following applies: read-out: FRET-Membrane Potential Nav1.7 IC50. The method in brief:
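Channel activation used veratridine at its EC80, set by a dilution curve each experiment, together with Leiurus scorpion venom, added 3 min after compound. Membrane-potential ratio signals from FLIPR Tetra in HEPES-buffered HBSS were fitted to a four-parameter Hill equation for percent inhibition and IC50.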

The mark [1] stands for this setting: HEK293 cells stably expressing recombinant human Nav1.7, veratridine + scorpion venom depolarization.

Where two headings read alike, the source gives them in different places. A value given as a limit tells only on which side of the number the result lay.

recombinant human Nav1.7, sequence (Q15858 whole entry): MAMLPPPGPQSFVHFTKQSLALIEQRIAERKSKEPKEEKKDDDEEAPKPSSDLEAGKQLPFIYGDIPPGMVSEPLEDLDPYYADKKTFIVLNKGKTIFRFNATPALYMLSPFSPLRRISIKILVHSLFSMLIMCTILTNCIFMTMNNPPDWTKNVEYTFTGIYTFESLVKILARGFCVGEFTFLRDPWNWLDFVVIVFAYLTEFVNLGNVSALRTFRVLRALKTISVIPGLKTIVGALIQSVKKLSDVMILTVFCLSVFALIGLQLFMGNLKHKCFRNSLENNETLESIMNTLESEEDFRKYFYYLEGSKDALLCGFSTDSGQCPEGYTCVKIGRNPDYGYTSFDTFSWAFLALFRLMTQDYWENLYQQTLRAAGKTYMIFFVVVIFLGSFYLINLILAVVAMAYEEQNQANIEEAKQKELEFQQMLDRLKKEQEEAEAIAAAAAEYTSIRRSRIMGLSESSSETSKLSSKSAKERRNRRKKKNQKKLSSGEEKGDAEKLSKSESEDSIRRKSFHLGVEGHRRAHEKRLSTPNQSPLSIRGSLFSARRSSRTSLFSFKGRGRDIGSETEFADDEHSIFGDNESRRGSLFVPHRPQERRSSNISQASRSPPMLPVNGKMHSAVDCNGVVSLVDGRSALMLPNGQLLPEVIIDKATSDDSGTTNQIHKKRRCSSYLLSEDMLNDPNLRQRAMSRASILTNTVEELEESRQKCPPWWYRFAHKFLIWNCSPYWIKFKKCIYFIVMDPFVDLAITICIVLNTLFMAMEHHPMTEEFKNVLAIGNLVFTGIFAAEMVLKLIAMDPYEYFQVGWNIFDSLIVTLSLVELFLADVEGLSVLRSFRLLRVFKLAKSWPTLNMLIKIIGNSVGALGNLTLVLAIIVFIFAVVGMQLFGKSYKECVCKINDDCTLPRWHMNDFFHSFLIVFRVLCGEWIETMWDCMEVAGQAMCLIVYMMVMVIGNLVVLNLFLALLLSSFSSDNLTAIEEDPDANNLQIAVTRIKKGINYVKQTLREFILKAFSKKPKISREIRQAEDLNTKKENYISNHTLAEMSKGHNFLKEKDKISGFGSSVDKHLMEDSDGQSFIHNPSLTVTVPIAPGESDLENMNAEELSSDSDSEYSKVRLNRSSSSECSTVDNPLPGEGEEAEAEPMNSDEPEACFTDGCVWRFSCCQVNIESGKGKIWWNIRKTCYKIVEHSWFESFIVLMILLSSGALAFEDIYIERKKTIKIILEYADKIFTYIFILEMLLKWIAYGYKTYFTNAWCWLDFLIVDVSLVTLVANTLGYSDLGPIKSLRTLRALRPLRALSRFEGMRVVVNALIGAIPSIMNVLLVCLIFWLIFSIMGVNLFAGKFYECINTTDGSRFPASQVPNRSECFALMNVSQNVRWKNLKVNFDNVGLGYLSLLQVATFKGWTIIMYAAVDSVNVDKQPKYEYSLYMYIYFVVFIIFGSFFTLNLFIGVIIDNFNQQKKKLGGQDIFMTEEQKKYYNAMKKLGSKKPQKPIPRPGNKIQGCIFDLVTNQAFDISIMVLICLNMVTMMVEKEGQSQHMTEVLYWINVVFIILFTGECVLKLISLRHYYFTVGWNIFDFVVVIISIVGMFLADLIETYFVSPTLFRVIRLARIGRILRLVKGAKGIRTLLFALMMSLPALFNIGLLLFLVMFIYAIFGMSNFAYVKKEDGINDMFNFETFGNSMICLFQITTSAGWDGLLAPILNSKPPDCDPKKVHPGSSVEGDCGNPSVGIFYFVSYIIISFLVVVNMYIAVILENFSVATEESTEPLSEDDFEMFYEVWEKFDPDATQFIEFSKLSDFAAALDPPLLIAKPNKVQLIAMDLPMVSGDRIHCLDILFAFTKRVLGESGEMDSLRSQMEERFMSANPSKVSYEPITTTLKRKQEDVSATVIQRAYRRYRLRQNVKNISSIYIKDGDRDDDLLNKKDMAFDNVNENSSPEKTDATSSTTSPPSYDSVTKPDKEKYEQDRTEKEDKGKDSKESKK

In the case of `CC(C)[C@H]1CN(C(=O)c2ccc3cc(Oc4ccc(C#N)cc4)ccc3n2)CCN1` [Example 142, 4-[(2-{[(3S)-3-isopropylpiperazin-1-yl]carbonyl}quinolin-6-yl)oxy]benzonitrile], the IC50 (as a rule, the concentration that inhibits the measured activity by half) under setting [1] is 766 nM. Take `O=C(NC1CCS(=O)(=O)C1)c1ccc2cc(Oc3ncc(C(F)(F)F)cc3Cl)ccc2n1` (centres unmarked) [Example 154, 6-{[3-chloro-5-(trifluoromethyl)pyridin-2-yl]oxy}-N-(1,1-dioxidotetrahydrothiophen-3-yl)quinoline-2-carboxamide]: the IC50 under setting [1] was determined as 2320 nM. The same measure, in the same setting: the same measure for `N#Cc1ccc(Oc2ccc3nc(C(=O)NCCN4CCCC4)ccc3c2)cc1` [Example 96, 6-(4-cyanophenoxy)-N-[2-(pyrrolidin-1-yl)ethyl]quinoline-2-carboxamide]: 329 nM; for `Cc1ccc(CNC(=O)c2ccc3cc(Oc4ccc(C#N)cc4)ccc3n2)cc1` [Example 103, 6-(4-cyanophenoxy)-N-(4-methylbenzyl)quinoline-2-carboxamide]: more than 20000 nM. Regarding `O=C(c1ccc2cc(Oc3ccc(C(F)(F)F)cn3)ccc2n1)N1CCC[C@H](O)C1` [Example 582, [(3S)-3-hydroxypiperidin-1-yl](6-{[5-(trifluoromethyl)pyridin-2-yl]oxy}quinolin-2-yl)methanone], the IC50 amounted to 10300 nM. Regarding `CC1(O)CCN(C(=O)c2ccc3cc(Oc4ccc(C(F)(F)F)cn4)ccc3n2)CC1` [Example 255, (4-hydroxy-4-methylpiperidin-1-yl)(6-{[5-(trifluoromethyl)pyridin-2-yl]oxy}quinolin-2-yl)methanone], under setting [1], the IC50 came to 12100 nM.

As to `O=C(c1ccc2cc(Oc3ccc(C(F)(F)F)cn3)ccc2n1)N1CC(n2ccnc2)C1` [Example 202, [3-(1H-imidazol-1-yl)azetidin-1-yl](6-{[5-(trifluoromethyl)pyridin-2-yl]oxy}quinolin-2-yl)methanone], the IC50 under setting [1] was found to be 911 nM. On the same count and under the same terms, the same measure for `O=C(N[C@@H]1CCOC1=O)c1ccc2cc(Oc3ccc(C(F)(F)F)cn3)ccc2n1` [Example 530, N-[(3R)-2-oxotetrahydrofuran-3-yl]-6-{[5-(trifluoromethyl)pyridin-2-yl]oxy}quinoline-2-carboxamide]: 911 nM; for `O=C(c1ccc2cc(Oc3ccc(C(F)(F)F)cn3)ccc2n1)N1C[C@@H]2CCN[C@@H]2C1` [Example 280, (3 aS,6aS)-hexahydropyrrolo[3,4-b]pyrrol-5(1H)-yl(6-{[5-(trifluoromethyl)pyridin-2-yl]oxy}quinolin-2-yl)methanone]: 605 nM.

Regarding `N#Cc1ccc(Oc2ccc3nc(C(=O)N[C@@H]4CCCC[C@@H]4O)ccc3c2)cc1` [Example 119, 6-(4-cyanophenoxy)-N-[(1R,2S)-2-hydroxycyclohexyl]quinoline-2-carboxamide], the IC50 was determined as 819 nM. Still for that read-out and setting: to `O=C(NCC(=O)N1CC(O)C1)c1ccc2cc(Oc3ccc(C(F)(F)F)cn3)ccc2n1` [Example 566, N-[2-(3-hydroxyazetidin-1-yl)-2-oxoethyl]-6-{[5-(trifluoromethyl)pyridin-2-yl]oxy}quinoline-2-carboxamide] belongs 2370 nM. `O=C(c1ccc2cc(Oc3ccc(C(F)(F)F)cn3)ccc2n1)N1CC[C@@H]2CN[C@@H]2C1` [Example 213, (1S,6R)-3,8-diazabicyclo[4.2.0]oct-3-yl(6-{[5-(trifluoromethyl)pyridin-2-yl]oxy}quinolin-2-yl)methanone]: the half-maximal inhibitory concentration (IC50) under setting [1] came out at 9400 nM.

As for `O=C(c1ccc2cc(Oc3ccc(C(F)(F)F)cn3)ccc2n1)N1CCn2cncc2C1` [Example 173, 5,6-dihydroimidazo[1,5-a]pyrazin-7(8H)-yl(6-{[5-(trifluoromethyl)pyridin-2-yl]oxy}quinolin-2-yl)methanone], under setting [1], the IC50 came to 833 nM. Still for that read-out and setting: the same measure for `O=C(c1ccc2cc(Oc3ccc(C(F)(F)F)cn3)ccc2n1)N1CCC(F)(COc2ccccc2)C1` (centres unmarked) [Example 491, [3-fluoro-3-(phenoxymethyl)pyrrolidin-1-yl](6-{[5-(trifluoromethyl)pyridin-2-yl]oxy}quinolin-2-yl)methanone]: 4990 nM. The same measure, in the same setting: the same measure for `O=C(c1ccc2cc(Oc3ccc(C(F)(F)F)cn3)ccc2n1)N1CCCC(O)CC1` (centres unmarked) [Example 284, (4-hydroxyazepan-1-yl)(6-{[5-(trifluoromethyl)pyridin-2-yl]oxy}quinolin-2-yl)methanone]: 8590 nM; for `O=C(c1ccc2cc(Oc3ccc(C(F)(F)F)cn3)ccc2n1)N1CCN(C2CC2)CC1` [Example 261, (4-cyclopropylpiperazin-1-yl)(6-{[5-(trifluoromethyl)pyridin-2-yl]oxy}quinolin-2-yl)methanone]: 6310 nM.

With `O=C(c1ccc2cc(Oc3ccc(C(F)(F)F)cn3)ccc2n1)N1CC2(COC2)C1` [Example 156, 2-oxa-6-azaspiro[3.3]hept-6-yl(6-{[5-(trifluoromethyl)pyridin-2-yl]oxy}quinolin-2-yl)methanone], the IC50 was more than 20000 nM. For the compound `O=C(c1ccc2cc(Oc3ccc(C(F)(F)F)cn3)ccc2n1)N1CCn2cnnc2C1` [Example 170, 5,6-dihydro[1,2,4]triazolo[4,3-a]pyrazin-7(8H)-yl(6-{[5-(trifluoromethyl)pyridin-2-yl]oxy}quinolin-2-yl)methanone], the IC50 under setting [1] was 8870 nM. On the same count and under the same terms, to `O=C(NCC(=O)N1CCCCC1)c1ccc2cc(Oc3ccc(C(F)(F)F)nc3)ccc2n1` [Example 518, N-[2-oxo-2-(piperidin-1-yl)ethyl]-6-{[6-(trifluoromethyl)pyridin-3-yl]oxy}quinoline-2-carboxamide] belongs 998 nM. `COCCN(CCOC)C(=O)c1ccc2cc(Oc3ccc(C(F)(F)F)cn3)ccc2n1` [Example 379, N,N-bis(2-methoxyethyl)-6-{[5-(trifluoromethyl)pyridin-2-yl]oxy}quinoline-2-carboxamide]: the IC50 under setting [1] was 3390 nM. On the same count and under the same terms, to `CC(=O)N1CCN(C(=O)c2ccc3cc(Oc4ccc(C(F)(F)F)cn4)ccc3n2)CC1` [Example 218, 1-{4-[(6-{[5-(trifluoromethyl)pyridin-2-yl]oxy}quinolin-2-yl)carbonyl]piperazin-1-yl}ethanone] belongs more than 20000 nM. On the same count and under the same terms, the same measure for `O=C(c1ccc2cc(Oc3ccc(C(F)(F)F)cn3)ccc2n1)N1CC2(CCNCC2)C1` [Example 232, 2,7-diazaspiro[3.5]non-2-yl(6-{[5-(trifluoromethyl)pyridin-2-yl]oxy}quinolin-2-yl)methanone]: 17400 nM. Still for that read-out and setting: the same measure for `O=C(c1ccc2cc(Oc3ccc(C(F)(F)F)cn3)ccc2n1)N1CCC2(CC(O)C2)C1` (centres unmarked) [Example 345, (2-hydroxy-6-azaspiro[3.4]oct-6-yl)(6-{[5-(trifluoromethyl)pyridin-2-yl]oxy}quinolin-2-yl)methanone]: 9150 nM. In the case of `O=C(c1ccc2cc(Oc3ccc(C(F)(F)F)cn3)ccc2n1)N1CC(N2CC[C@H](F)C2)C1` [Example 586, {3-[(3S)-3-fluoropyrrolidin-1-yl]azetidin-1-yl}(6-{[5-(trifluoromethyl)pyridin-2-yl]oxy}quinolin-2-yl)methanone], the half-maximal inhibitory concentration (IC50) was 1800 nM. Turning to `O=C(c1ccc2cc(Oc3ccc(C(F)(F)F)cn3)ccc2n1)N1CCC(N2C[C@@H]3C[C@H]2CO3)CC1` [Example 377, {4-[(1S,4S)-2-oxa-5-azabicyclo[2.2.1]hept-5-yl]piperidin-1-yl}(6-{[5-(trifluoromethyl)pyridin-2-yl]oxy}quinolin-2-yl)methanone], under setting [1], the IC50 stood at 3320 nM.

`O=C(NC[C@H]1CCCN1)c1ccc2cc(Oc3ccc(C(F)(F)F)cn3)ccc2n1` [Example 335, N-[(2R)-pyrrolidin-2-ylmethyl]-6-{[5-(trifluoromethyl)pyridin-2-yl]oxy}quinoline-2-carboxamide]: the IC50 under setting [1] turned out to be 573 nM.

Turning to `O=C(c1ccc2cc(Oc3ccc(C(F)(F)F)cn3)ccc2n1)N1CCSCC1` [Example 221, thiomorpholin-4-yl(6-{[5-(trifluoromethyl)pyridin-2-yl]oxy}quinolin-2-yl)methanone], the IC50 stood at 2790 nM. As for `CC(C)N1CCN(C(=O)c2ccc3cc(Oc4ccc(C(F)(F)F)cn4)ccc3n2)CC1` [Example 231, (4-isopropylpiperazin-1-yl)(6-{[5-(trifluoromethyl)pyridin-2-yl]oxy}quinolin-2-yl)methanone], the half-maximal inhibitory concentration (IC50) is 783 nM. For the compound `O=C(c1ccc2cc(Oc3ccc(C(F)(F)F)cn3)ccc2n1)N1CCC(F)(F)CC1` [Example 330, (4,4-difluoropiperidin-1-yl)(6-{[5-(trifluoromethyl)pyridin-2-yl]oxy}quinolin-2-yl)methanone], the IC50 under setting [1] came to 2950 nM. Consider `CC(O)C(C)NC(=O)c1ccc2cc(Oc3ccc(C#N)cc3)ccc2n1` (centres unmarked) [Example 134, 6-(4-cyanophenoxy)-N-(3-hydroxybutan-2-yl)quinoline-2-carboxamide], for which the IC50 was 2320 nM. For the compound `N#Cc1ccc(Oc2ccc3nc(C(=O)NCc4ccncc4)ccc3c2)cc1` [Example 98, 6-(4-cyanophenoxy)-N-(pyridin-4-ylmethyl)quinoline-2-carboxamide], the IC50 under setting [1] is 885 nM. `CN(C(=O)c1ccc2cc(Oc3ccc(C(F)(F)F)cn3)ccc2n1)C1CCOCC1` [Example 411, N-methyl-N-(tetrahydro-2H-pyran-4-yl)-6-{[5-(trifluoromethyl)pyridin-2-yl]oxy}quinoline-2-carboxamide]: the IC50 under setting [1] was determined as 14100 nM. Consider `O=C(c1ccc2cc(Oc3ccc(C(F)(F)F)cn3)ccc2n1)N1CCC(F)CC1` [Example 318, (4-fluoropiperidin-1-yl)(6-{[5-(trifluoromethyl)pyridin-2-yl]oxy}quinolin-2-yl)methanone], for which, under setting [1], the IC50 was 7410 nM.

Take `CNS(=O)(=O)N1CCN(C(=O)c2ccc3cc(Oc4ccc(C(F)(F)F)cn4)ccc3n2)CC1` [Example 235, N-methyl-4-[(6-{[5-(trifluoromethyl)pyridin-2-yl]oxy}quinolin-2-yl)carbonyl]piperazine-1-sulfonamide]: the IC50 under setting [1] turned out to be 2360 nM. Turning to `O=C(c1ccc2cc(Oc3ccc(C(F)(F)F)cn3)ccc2n1)N1CCC(N2CCC2)C1` (centres unmarked) [Example 314, [3-(azetidin-1-yl)pyrrolidin-1-yl](6-{[5-(trifluoromethyl)pyridin-2-yl]oxy}quinolin-2-yl)methanone], the IC50 turned out to be 218 nM.

Values taken from US9452986B2, “6-heteroaryloxy- or 6-aryloxy-quinoline-2-carboxamides and method of use” (AbbVie Inc., priority 2014, dated 2016).
